Experimental data from patent US20020031782A1, “Mycobacterium tuberculosis CYP51 high resolution structure, polypeptides and nucleic acids, and therapeutic and screening methods relating to same” (priority 1999, published 2002).
Where two headings read alike, the source gives them in different places.

Tests used:
[1] = biological target: T1, MT P45014DM (Mycobacterium tuberculosis, UniProt P9WPP9); assay: biochemical; format: binding; design: DNA segments encoding full length proteins preferably have a coding length on the order of about 1353 nucleotides; made in house; host or cells: E. coli HMS174, vector pet17b; conditions: for Kd: type I substrate-induced difference spectrum, 10 μM MT P45014DM, read-out: Ks value (binding constant), substrate
T1 sequence (P9WPP9 1-451): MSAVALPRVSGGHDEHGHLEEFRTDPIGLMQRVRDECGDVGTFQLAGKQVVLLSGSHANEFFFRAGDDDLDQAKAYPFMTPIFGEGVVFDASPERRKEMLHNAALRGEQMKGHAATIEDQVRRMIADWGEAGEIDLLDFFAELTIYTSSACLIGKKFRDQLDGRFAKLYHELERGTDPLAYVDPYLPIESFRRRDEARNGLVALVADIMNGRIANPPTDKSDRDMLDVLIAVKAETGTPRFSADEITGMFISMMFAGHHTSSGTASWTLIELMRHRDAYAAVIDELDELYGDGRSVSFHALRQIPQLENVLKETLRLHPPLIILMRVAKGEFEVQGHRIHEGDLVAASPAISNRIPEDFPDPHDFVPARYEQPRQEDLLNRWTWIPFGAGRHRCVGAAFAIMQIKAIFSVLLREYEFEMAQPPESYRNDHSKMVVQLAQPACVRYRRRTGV

[2] = biological target: T1, MT P45014DM; assay: Reconstituted catalytic activity: sterol 14α-demethylation by MT P45014DM; format: biochemical; design: DNA segments encoding full length proteins preferably have a coding length on the order of about 1353 nucleotides; made in house; host or cells: E. coli HMS174, vector pet17b
[3] = biological target: maize microsomes; conditions: Salmon et al. 1992; read-out: binding constant estimated for maize microsomes; cited from earlier work
[4] = biological target: T1, MT P45014DM; assay: biochemical; format: binding; design: DNA segments encoding full length proteins preferably have a coding length on the order of about 1353 nucleotides; made in house; host or cells: E. coli HMS174, vector pet17b
[5] = tested on: MT H37RA; assay: Effect of azole inhibitors on growth of MT; format: cell-based, Mycobacterium tuberculosis
Procedure: The characterization of the CYP51 enzyme of the present invention in MT leads to the analysis of the function of this enzyme in the disease tuberculosis and of whether this enzyme represents a new drug target for the treatment of tuberculosis. Particularly, the effects of three azole inhibitors on the growth of MT H37RA, an alternated strain of MTH37R which is the pathogenic strain whose genomic sequence was determined by Cole et al., (1998) Nature […]:537-544 (bacterial strains provided by Dr. Dean Crick at Colorado State University) were examined.
As contemplated by applicants in accordance with the present invention, it was observed that ketoconazole has a profound effect on the growth of MT, stopping growth at about a 25 μM concentration. […] The targeting of ketoconazole to P45014DM in MT also leads to the identification of additional specific azole inhibitors which have far greater specificity for the MT CYP45014DM enzyme as compared to the human CYP45014DM enzyme. Such inhibitors therefore will have fewer side effects than less specific inhibitors. Thus, as described above, a method of screening for highly specific inhibitors of MT CYP45014DM in accordance with the screening methods described herein above comprises another aspect of the present invention.

[6] = biological target: T2, bovine 17α-hydroxylase P450 (bC17) (Bos taurus, UniProt P05185); assay: CO-based reduction of 17α-hydroxylase P450 by electron donors (control); format: biochemical; conditions: compared to 100% determined by sodium hydrosulfite
T2 sequence (P05185 1-509): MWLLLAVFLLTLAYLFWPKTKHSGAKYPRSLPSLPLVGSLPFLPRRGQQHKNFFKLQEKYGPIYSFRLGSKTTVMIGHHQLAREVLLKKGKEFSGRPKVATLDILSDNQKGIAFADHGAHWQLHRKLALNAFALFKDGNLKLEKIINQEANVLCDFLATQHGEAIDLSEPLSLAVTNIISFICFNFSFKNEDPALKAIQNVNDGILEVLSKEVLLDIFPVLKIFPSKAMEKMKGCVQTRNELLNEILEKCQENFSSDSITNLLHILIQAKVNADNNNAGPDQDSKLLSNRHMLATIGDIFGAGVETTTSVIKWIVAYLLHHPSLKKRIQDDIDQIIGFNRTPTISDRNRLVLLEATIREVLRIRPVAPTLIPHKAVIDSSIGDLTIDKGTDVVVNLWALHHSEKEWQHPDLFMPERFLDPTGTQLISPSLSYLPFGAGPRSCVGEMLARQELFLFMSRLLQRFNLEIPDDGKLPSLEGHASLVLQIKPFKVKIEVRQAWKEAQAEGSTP

[7] = biological target: T1, MT P45014DM; conditions: compared to 100% determined by sodium hydrosulfite
[8] = biological target: T3, cholesterol side chain cleavage P450 (SCC) (Bos taurus, UniProt P00189); assay: CO-based reduction of cholesterol side chain cleavage P450 by electron donor (control); format: biochemical, bovine; conditions: compared to 100% determined by sodium hydrosulfite
T3 sequence (P00189 40-520): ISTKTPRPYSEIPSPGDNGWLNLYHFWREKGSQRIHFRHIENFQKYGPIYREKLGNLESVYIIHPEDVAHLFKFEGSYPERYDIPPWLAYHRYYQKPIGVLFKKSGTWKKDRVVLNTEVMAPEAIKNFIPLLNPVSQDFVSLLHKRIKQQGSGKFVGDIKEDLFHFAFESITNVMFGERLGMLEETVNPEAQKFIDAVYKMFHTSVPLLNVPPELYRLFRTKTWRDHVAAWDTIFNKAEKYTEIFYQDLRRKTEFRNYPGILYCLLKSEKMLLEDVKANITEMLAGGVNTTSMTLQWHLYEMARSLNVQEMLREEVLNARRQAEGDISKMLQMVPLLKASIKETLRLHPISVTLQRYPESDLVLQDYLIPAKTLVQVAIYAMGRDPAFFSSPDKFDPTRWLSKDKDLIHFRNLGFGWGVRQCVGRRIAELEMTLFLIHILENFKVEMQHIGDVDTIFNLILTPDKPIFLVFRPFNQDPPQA

C=C(CC[C@@H](C)[C@H]1CC[C@@]2(C)C3=C(CC[C@]12C)[C@@]1(C)CC[C@H](O)C(C)(C)[C@@H]1CC3)C(C)C [24-methylene-dihydrolanosterol]
sterol binding to the enzyme (yes/no) [1]: did not bind

CC(C)CCC[C@@H](C)[C@H]1CC[C@@]2(C)C3=C(CC[C@]12C)[C@@]1(C)CC[C@H](O)C(C)(C)[C@@H]1CC3 [DHL, 24,25-dihydrolanosterol]
Total product recovered from the quenched reaction mixtures [2]: 20% | sterol binding to the enzyme (yes/no) [1]: binds | Kd [1]: ~1000 nM

CC(C)=CCC[C@@H](C)[C@H]1CC[C@@]2(C)[C@@H]3CC[C@H]4C(C)(C)[C@@H](O)CC[C@@]45C[C@@]35CC[C@]12C [cycloartenol]
sterol binding to the enzyme (yes/no) [1]: Neither parkeol, cycloartenol, nor zymosterol (FIG. 3A) were found to bind

CC(=O)N1CCN(c2ccc(OCC3COC(Cn4ccnc4)(c4ccc(Cl)cc4Cl)O3)cc2)CC1 (stereo not shown) [ketoconazole]
Kd [3]: 10000 nM | Kd [4]: ~5000 nM | inhibition of the 14α-demethylation of DHL [2]: inhibit | concentration stopping growth of MT [5]: ~25 µM

CC(C)=CCC[C@@H](C)[C@H]1CC[C@@]2(C)C3=C(CC[C@]12C)[C@@]1(C)CC[C@H](O)C(C)(C)[C@@H]1CC3 [lanosterol]
Total product recovered from the quenched reaction mixtures [2]: 1% | sterol binding to the enzyme (yes/no) [1]: binds | Kd [1]: ~1000 nM

C=C(CC[C@@H](C)[C@H]1CC[C@@]2(C)C3=C(CC[C@]12C)[C@@]1(C)CC[C@H](O)[C@@H](C)[C@@H]1CC3)C(C)C [obtusifoliol]
Total product recovered from the quenched reaction mixtures [2]: 98% | sterol binding to the enzyme (yes/no) [1]: binds | Kd [1]: 350 ± 150 nM

CC(C)=CCC[C@@H](C)[C@H]1CC[C@@]2(C)[C@@H]3CC[C@H]4C(C)(C)[C@@H](O)CC[C@]4(C)C3=CC[C@]12C [parkeol]
sterol binding to the enzyme (yes/no) [1]: Neither parkeol, cycloartenol, nor zymosterol (FIG. 3A) were found to bind

CC(C)=CCC[C@@H](C)[C@H]1CC[C@H]2C3=C(CC[C@]12C)[C@@]1(C)CC[C@H](O)C[C@@H]1CC3 [zymosterol, 4,4,14-tridesmethyl lanosterol]
sterol binding to the enzyme (yes/no) [1]: Neither parkeol, cycloartenol, nor zymosterol (FIG. 3A) were found to bind

B1: rat P450 reductase: rat microsomal NADPH cytochrome P450 reductase (protein, UniProt P00388 2-678, looked up)
NADPH--cytochrome P450 …: GDSHEDTSATMPEAVAEEVSLFSTTDMVLFSLIVGVLTYWFIFRKKKEEIPEFSKIQTTAPPVKESSFVEKMKKTGRNIIVFYGSQTGTAEEFANRLSKDAHRYGMRGMSADPEEYDLADLSSLPEIDKSLVVFCMATYGEGDPTDNAQDFYDWLQETDVDLTGVKFAVFGLGNKTYEHFNAMGKYVDQRLEQLGAQRIFELGLGDDDGNLEEDFITWREQFWPAVCEFFGVEATGEESSIRQYELVVHEDMDVAKVYTGEMGRLKSYENQKPPFDAKNPFLAAVTANRKLNQGTERHLMHLELDISDSKIRYESGDHVAVYPANDSALVNQIGEILGADLDVIMSLNNLDEESNKKHPFPCPTTYRTALTYYLDITNPPRTNVLYELAQYASEPSEQEHLHKMASSSGEGKELYLSWVVEARRHILAILQDYPSLRPPIDHLCELLPRLQARYYSIASSSKVHPNSVHICAVAVEYEAKSGRVNKGVATSWLRAKEPAGENGGRALVPMFVRKSQFRLPFKSTTPVIMVGPGTGIAPFMGFIQERAWLREQGKEVGETLLYYGCRRSDEDYLYREELARFHKDGALTQLNVAFSREQAHKVYVQHLLKRDREHLWKLIHEGGAHIYVCGDARNMAKDVQNTFYDIVAEFGPMEHTQAVDYVKKLMTKGRYSLDVWS
reduction of bC17 (reduced-CO spectrum) [6]: 73% | reduction of MT P45014DM (reduced-CO spectrum) [7]: n.r.

B2: Adx/Adr: bovine adrenodoxin/adrenodoxin reductase electron donor system (protein, UniProt P00257 59-186; P08165 33-492, looked up)
Adrenodoxin, mitochondrial: SSSEDKITVHFINRDGETLTTKGKIGDSLLDVVVQNNLDIDGFGACEGTLACSTCHLIFEQHIFEKLEAITDEENDMLDLAYGLTDRSRLGCQICLTKAMDNMTVRVPDAVSDARESIDMGMNSSKIE
NADPH:adrenodoxin …: STQEQTPQICVVGSGPAGFYTAQHLLKHHSRAHVDIYEKQLVPFGLVRFGVAPDHPEVKNVINTFTQTARSDRCAFYGNVEVGRDVTVQELQDAYHAVVLSYGAEDHQALDIPGEELPGVFSARAFVGWYNGLPENRELAPDLSCDTAVILGQGNVALDVARILLTPPDHLEKTDITEAALGALRQSRVKTVWIVGRRGPLQVAFTIKELREMIQLPGTRPMLDPADFLGLQDRIKEAARPRKRLMELLLRTATEKPGVEEAARRASASRAWGLRFFRSPQQVLPSPDGRRAAGIRLAVTRLEGIGEATRAVPTGDVEDLPCGLVLSSIGYKSRPIDPSVPFDPKLGVVPNMEGRVVDVPGLYCSGWVKRGPTGVITTTMTDSFLTGQILLQDLKAGHLPSGPRPGSAFIKALLDSRGVWPVSFSDWEKLDAEEVSRGQASGKPREKLLDPQEMLRLLGH
modifications: two-protein electron donor system
reduction of MT P45014DM (reduced-CO spectrum) [7]: n.r. | reduction of SCC (reduced-CO spectrum) [8]: 80%

B3: Fld/Fdr: E. coli flavodoxin/flavodoxin reductase two-component electron donor system (protein, UniProt P61949 2-176; P28861 2-248, looked up)
Flavodoxin 1: AITGIFFGSDTGNTENIAKMIQKQLGKDVADVHDIAKSSKEDLEAYDILLLGIPTWYYGEAQCDWDDFFPTLEEIDFNGKLVALFGCGDQEDYAEYFCDALGTIRDIIEPRGATIVGHWPTAGYHFEASKGLADDDHFVGLAIDEDRQPELTAERVEKWVKQISEELHLDEILNA
Flavodoxin/ferredoxin--NADP …: ADWVTGKVTKVQNWTDALFSLTVHAPVLPFTAGQFTKLGLEIDGERVQRAYSYVNSPDNPDLEFYLVTVPDGKLSPRLAALKPGDEVQVVSEAAGFFVLDEVPHCETLWMLATGTAIGPYLSILQLGKDLDRFKNLVLVHAARYAADLSYLPLMQELEKRYEGKLRIQTVVSRETAAGSLTGRIPALIESGELESTIGLPMNKETSHVMLCGNPQMVRDTQQLLKETRQMTKHLRRRPGHMTAEHYW
reduction of bC17 (reduced-CO spectrum) [6]: 77%
